Legend:
Conditions in all cases: 72 h
[1] = tested on: HepG2; experiment: cell viability relative to DMSO; higher = less toxic
[2] = tested on: Vero E6; experiment: as above
[3] = tested on: Calu-3; experiment: as above
[4] = tested on: U2OS; experiment: as above
[5] = tested on: Caco-2; experiment: as above
[6] = tested on: HepG2; experiment: drug sensitivity score (DSS) for viability; higher = more toxic; extreme values may be limits of the assay
[7] = tested on: Vero E6; experiment: as above
[8] = tested on: Calu-3; experiment: as above
[9] = tested on: U2OS; experiment: as above
[10] = tested on: Caco-2; experiment: as above
[11] = tested on: HepG2; experiment: relative viability EC50 (midpoint between 100% and the lowest measured viability); higher = less toxic
[12] = tested on: Vero E6; experiment: as above
[13] = tested on: Calu-3; experiment: as above
[14] = tested on: U2OS; experiment: as above
[15] = tested on: Caco-2; experiment: as above

Compound	cell viability ([1]; 1 nM)	cell viability ([1]; 10 nM)	cell viability ([1]; 100 nM)	cell viability ([1]; 1000 nM)	cell viability ([1]; 10000 nM)	cell viability ([2]; 1 nM)	cell viability ([2]; 10 nM)	cell viability ([2]; 100 nM)	cell viability ([2]; 1000 nM)	cell viability ([2]; 10000 nM)	cell viability ([3]; 1 nM)	cell viability ([3]; 10 nM)	cell viability ([3]; 100 nM)	cell viability ([3]; 1000 nM)	cell viability ([3]; 10000 nM)	cell viability ([4]; 1 nM)	cell viability ([4]; 10 nM)	cell viability ([4]; 100 nM)	cell viability ([4]; 1000 nM)	cell viability ([4]; 10000 nM)	cell viability ([5]; 1 nM)	cell viability ([5]; 10 nM)	cell viability ([5]; 100 nM)	cell viability ([5]; 1000 nM)	cell viability ([5]; 10000 nM)	drug sensitivity score [6]	drug sensitivity score [7]	drug sensitivity score [8]	drug sensitivity score [9]	drug sensitivity score [10]	relative viability EC50 [11]	relative viability EC50 [12]	relative viability EC50 [13]	relative viability EC50 [14]	relative viability EC50 [15]
Nc1ccc(S(=O)(=O)NC(=O)c2ccccc2)cc1 [sulfabenzamide]	109%	102%	99%	103%	109%	97.4%	95.4%	92.1%	96.7%	105%	109%	101%	96.8%	106%	106%	94.7%	93.9%	102%	98.1%	103%	92.3%	104%	100%	100%	108%	0	0	0	0	0	> 10 µM	> 10 µM	> 10 µM	> 10 µM	> 10 µM
Cc1cccc(Oc2cnc(=O)[nH]c2)c1 [tolimidone]	111%	95.4%	80.8%	94.1%	98%	108%	95.4%	90.3%	95.7%	91.2%	108%	93.8%	92.2%	99.7%	95.8%	103%	98.4%	103%	99.9%	104%	111%	95.7%	94.8%	95.9%	102%	0	0	0	0	0	> 10 µM	> 10 µM	> 10 µM	> 10 µM	> 10 µM
Nc1ccn([C@H]2C[C@H](O)[C@@H](CO)O2)c(=O)n1 [torcitabine]	105%	94.3%	94.6%	104%	98.8%	104%	95.7%	90.2%	95.2%	101%	100%	94.6%	91.9%	99.9%	85.6%	102%	106%	99.1%	104%	95.5%	105%	95%	101%	97.1%	86.5%	0	0	0	0	0.3	> 10 µM	> 10 µM	> 10 µM	> 10 µM	> 10 µM
CCCCNc1c(C(=O)OCC)c(C)nc2c1cnn2CC [tracazolate]	97.6%	104%	92.5%	106%	99.3%	93%	97.7%	96.9%	96.7%	96.5%	101%	85.1%	98.6%	102%	86.4%	101%	93.2%	102%	97.7%	93.6%	93.3%	96.1%	97.2%	92.7%	101%	0	0	0.1	0	0	> 10 µM	> 10 µM	> 10 µM	> 10 µM	> 10 µM
O=C(Nc1ccc(Br)cc1)c1cc(Br)cc(Br)c1O [tribomsalan]	102%	104%	94.5%	99.7%	82.7%	93.5%	100%	91.1%	93.7%	98.6%	94.4%	92.2%	93.2%	102%	91.2%	96.6%	98%	96%	102%	96.4%	90.7%	90.3%	94.7%	105%	76.3%	0.4	0	0	0	0.6	> 10 µM	> 10 µM	> 10 µM	> 10 µM	> 10 µM
O=c1c2ccccc2oc2ccccc12 [xanthone]	108%	93.8%	93.5%	110%	93.6%	104%	100%	101%	99.1%	95.9%	95.3%	96.5%	103%	104%	104%	101%	94.9%	99%	97.9%	100%	102%	98.6%	101%	95.1%	106%	0	0	0	0	0	> 10 µM	> 10 µM	> 10 µM	> 10 µM	> 10 µM
C=CCCCCCCCCC(=O)[O][Zn][O]C(=O)CCCCCCCCC=C [zinc-undecylenate]	102%	98.8%	99.3%	100%	92%	105%	95.9%	94.8%	98.5%	93.9%	95.7%	100%	101%	95.6%	116%	97.7%	98.8%	98.4%	95.1%	99.1%	94.4%	96.3%	98.2%	96.6%	86.9%	0	0	0	0	0.3	> 10 µM	> 10 µM	> 10 µM	> 10 µM	> 10 µM
